Each structure is given as a SMILES string.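 Five concentrations, 48 hours, 96-well plates. The concentration for 50% growth inhibition is given as GI50.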 Activity calls are given as the source filed them. Cut-off read from the data, not from the text of the source: active = GI50 up to about 1.1 µM and inactive = higher.

Experiment in all cases: NCI anticancer screen, dose series, 48 h
Assay [1] has as its system SN12C.
For assay [2], the system named is SNB-75.
The subject of assay [3] is HCT-116.
Assay [4] relates to HT-29.
The test system of assay [5] is CCRF-CEM.
Assay [6] relates to SR.
Assay [7] relates to U-251.
Assay [8] deals with NCI-H460.
Assay [9] relates to NCI-H522.
The subject of assay [10] is SK-MEL-28.
Assay [11] relates to SF-295.
Assay [12] has as its system UACC-62.
For assay [13], the system named is OVCAR-3.
Assay [14] relates to CAKI-1.
For assay [15], the system named is K562.
In assay [16] the test system is SK-OV-3.
The test system of assay [17] is HOP-62.
Assay [18] has as its system SW-620.
Assay [19] has as its system SK-MEL-2.
The subject of assay [20] is Malme-3M.

As for `Cc1nc(N)nc(N)c1-c1ccc(Cl)c(Cl)c1` [METOPRINE], the GI50 in [1] is 0.664 µM (active); in assay [2] it was 11.5 µM (inactive); in assay [3], 0.0399 µM (active); in assay [4] it was 0.258 µM (active); in assay [5], 0.432 µM (active); in assay [6] it was 0.308 µM (active). Also, the GI50 in assay [7] is 0.635 µM (active); in assay [8], 0.0239 µM (active); in assay [9], 0.785 µM (active); in [10] it was 4.6 µM (inactive); in [11], 0.411 µM (active); in assay [12], 0.355 µM (active). Moreover, the GI50 in [13] was 3.75 µM (inactive); in assay [14] it was 5.18 µM (inactive); in assay [15], 0.0219 µM (active); in [16] it was 3.48 µM (inactive); in assay [17], 1.12 µM (inactive); in assay [18], 0.144 µM (active). For the same compound, the GI50 is 30.8 µM (inactive) in [19] and 2.91 µM (inactive) in [20].

With `CC(C)OC(=S)Nc1ccc(Cl)c(/C=N/OC(C)(C)C)c1`, the GI50 in assay [1] was 16.7 µM (inactive); in assay [2], 23.5 µM (inactive); in assay [3] it was 15.4 µM (inactive); in assay [4], 14.4 µM (inactive); in [5], 15.9 µM (inactive); in [6], 20.4 µM (inactive). Moreover, the GI50 in [7] was 17.1 µM (inactive); in [8], 17.4 µM (inactive); in assay [9], 15.7 µM (inactive); in [10] it was 21.7 µM (inactive); in assay [11], 13.5 µM (inactive); in assay [12], 16.4 µM (inactive). Besides, the GI50 is 18.5 µM (inactive) in assay [13]; 15.1 µM (inactive) in assay [14]; 20 µM (inactive) in [15]; 19.8 µM (inactive) in assay [16]; 19.5 µM (inactive) in assay [17]; 16.6 µM (inactive) in assay [18]. For the same compound, the results for the GI50 in assay [19] and in assay [20] were 18.5 µM (inactive) and 16.7 µM (inactive), respectively.

For the compound `OCCSCc1ccccc1`, the GI50 in assay [1], in assay [2], in assay [3], in assay [4], in [5] and in assay [6] was > 100 µM (inactive) each time. Besides, the GI50 in assay [7], in assay [8], in assay [9], in assay [10], in assay [11] and in assay [12] was > 100 µM (inactive) throughout. Besides, the GI50 in [13], in assay [14], in assay [15], in assay [16], in [17] and in assay [18] was > 100 µM (inactive) in each case. For the same compound, the GI50 in assay [19] and in [20] was > 100 µM (inactive) in each case.

Take `CCOC(=O)NC(OCCN(C)C)(C(F)(F)F)C(F)(F)F`: the GI50 in assay [1], in [2], in assay [3], in [4], in assay [5] and in assay [6] was > 100 µM (inactive) each time. The GI50 in [7], in assay [8], in assay [9], in [10], in assay [11] and in [12] was > 100 µM (inactive) each time. In addition, the GI50 in assay [13], in [14], in assay [15], in assay [16], in assay [17] and in assay [18] was > 100 µM (inactive) in each case. The GI50 in assay [19] and in assay [20] was > 100 µM (inactive) in each case.

As to `OCCCCCNc1cc(O)nc(O)n1`, the GI50 in [1], in assay [2], in assay [3], in assay [4], in assay [5] and in assay [6] was > 100 µM (inactive) in each case. Besides, the GI50 in assay [7], in assay [8], in assay [9], in [10], in assay [11] and in [12] was > 100 µM (inactive) throughout. Besides, the GI50 in assay [13], in [14], in [15], in [16], in [17] and in assay [18] was > 100 µM (inactive) in each case. The GI50 in [19] and in assay [20] was > 100 µM (inactive) throughout.

Consider `CCNc1cc2c3c(c1)CCN3CCC2`, for which the GI50 was > 10 µM (inactive) in assay [1]; > 10 µM (inactive) in [2]; > 10 µM (inactive) in [3]; > 10 µM (inactive) in assay [4]; 4.2 µM (inactive) in [5]; 5.32 µM (inactive) in [6]. Besides, the GI50 in assay [7] was > 10 µM (inactive); in assay [8], > 10 µM (inactive); in assay [9] it was 5.98 µM (inactive); in assay [10] it was > 10 µM (inactive); in [11], > 10 µM (inactive); in assay [12], > 10 µM (inactive). The GI50 in assay [13] was > 10 µM (inactive); in assay [14], > 10 µM (inactive); in assay [15] it was 1.72 µM (inactive); in [16] it was > 10 µM (inactive); in assay [17] it was > 10 µM (inactive); in assay [18] it was 6.3 µM (inactive). Also, the GI50 in assay [19] and in assay [20] was > 10 µM (inactive) in each case.

Regarding `CCOP(=O)(OCC)/C(C#N)=C/c1cccn1N(C)C`, the GI50 in assay [1] is > 100 µM (inactive); in assay [2], > 100 µM (inactive); in assay [3] it was 3.37 µM (inactive); in [4], > 100 µM (inactive); in assay [5], > 100 µM (inactive); in [6] it was > 100 µM (inactive). The GI50 in assay [7], in [8], in assay [9], in [10], in assay [11] and in assay [12] was > 100 µM (inactive) each time. Further, the GI50 in assay [13], in assay [14], in assay [15], in [16], in assay [17] and in [18] was > 100 µM (inactive) in each case. In addition, the GI50 in assay [19] and in assay [20] was > 100 µM (inactive) each time.

Values taken from ChEMBL document CHEMBL1201862, “PubChem BioAssay data set” (2004).
